Reference: patent publication US6348445B1, “Biologically active peptides with reduced toxicity in animals and a method for preparing same” (priority 1992, dated 2002)
Where no end group is shown, it is not given here.

How the values were obtained:
[1] = MTD and LD50, single intraperitoneal administration; format: in vivo, mice; settings: for No. of Survivors Day 1 / No. of Survivors Day 2 / No. of Survivors Day 3 / No. of Survivors Day 4 / No. of Survivors Day 5 / No. of Survivors Day 6 / No. of Survivors Day 7 / No. of Survivors Day 8 / No. of Survivors Day 11: 4 injected
Description: Determinations of a maximal tolerated dose (MTD) of a single intravenous (i.v.) administration or intraperitoneal (i.p.) administration of MSI-344 or MSI-1857 in 100 CD-1®BR mice were done. The MTD of a single intravenous (i.v.) administration was 10 mg/kg for MSI-344 and 60 mg/kg for MSI-1857. The MTD of a single intraperitoneal (i.p.) administration was less than 20 mg/kg for MSI-344 and between 50 and 100 mg/kg for MSI-1857.
To determine estimates of MTDs and LD50s of MSI-344 and MSI-1857 administered intravenously or intraperitoneally as a single bolus in mice.
A 5 mg/mL solution of MSI-344 was made in saline (0.9% sodium chloride injection USP, Abbott, North Chicago, Ill.) corrected for peptide content. Solutions of MSI-344 at concentrations of 4, 3, 2, 1.5, 1, and 0.5 mg/mL were made by diluting the 5 mg/mL solution using saline as diluent. (Errors were made in solution preparation of the 4, 3, and 2 mg/mL solutions and results from groups with animals doses with these solutions, i.e. groups 12, 13, and 14, were eliminated from study analysis). A 20 mg/mL solution of MSI-1857 was made in saline. Solutions of MSI-1857 at concentrations of 15, 10, 8, 6, and 5 mg/mL were made by diluting the 20 mg/mL solution using saline as diluent.
Another 5 mg/mL solution of MSI-344 was made in saline corrected for peptide content. Solutions of 4, 3 and 2 mg/mL were made by diluting the 5 mg/mL solution using saline as diluent. A 15 mg/mL solution of MSI-1857 in saline was made corrected for peptide content. A 10 mg/mL solution was made by diluting the 15 mg/mL solution with saline.
Mice (four mice per dose group) were intravenously or intraperitoneally administered a single bolus of MSI-344 or MSI-1857 using an injection volume of 10 mL/kg of the appropriate solution concentration. If the first two mice in a group died immediately (within 10 secs) after administration of a dose then no other mice injected with this dose of this compound (for ethical reasons). Survival was monitored daily for at least eight days post-administration. Study designs are presented in Tables IX and X. Toxicity Study # 262 was a supplement to Toxicity Study #261.

[2] = tested on: A-549 human lung carcinoma cells; format: cell-based; settings: 24 h
Description: (§1) Human lung carcinoma cells, A-549 (ATCC), and human breast carcinoma cells, MDA-435 (from Sandoz), were grown in Ham's F12K medium (GIBCO-BRL) supplemented with […] fetal bovine serum. Human chronic myelogenous leukemia cells, K-562 (ATCC), were maintained in RPMI 1640 medium (GIBCO-BRL) supplemented with 10% fetal bovine serum. Human melanoma cell line, WM 1617 (from the Wistar Institute), was maintained in 2% Tumor media.
(§2) Cytotoxicity assays were performed on the cell lines described above using CytoLite (Packard Instrument Company) following the manufacture's instruction. Briefly, 2×10^4cells/well were seeded into black, 96-well ViewPlates (Packard Instrument Company) in 100 μl/well growth medium. Ser. dilutions of Magainin peptides were then added into the cells and the plates incubated for 24 hours in a humidified 5% CO2 atmosphere at 37° C. Following incubation, 25 μl/well of CytoLite activator solution was added followed by 125 μl/well of amplifier solution. Luminescence was measured on TopCount Microplate Scintillation and Luminescence counter (Packard Instrument Company) using a 1 second count time in SPC (single photon counting) mode at 25 ° C. All assays were performed in triplicate. The peptides tested in this assay were MSI-78(SEQ ID NO: 154 —NH2), MSI-1858(SEQ ID NO: 154 —NH2 Methane Sulfonate), MSI-344(SEQ ID NO: 154 —OH) and MSI-1857(SEQ ID NO: 154 —OH Methane Sulfonate). The results of these assays are shown in FIGS. 2-9 with the corresponding IC50 values in Table VIII. In all cases the activity of the methane sulfonated peptide was as good or better than the parent peptide as indicated by both the survival curves and the IC50 values.

[3] = tested on: WM 1617 human melanoma cells; format: cell-based; settings: 24 h
Description: as §1, §2

[4] = tested on: K-562 human chronic myelogenous leukemia cells; format: cell-based; settings: 24 h
Description: as §1, §2

[5] = Tox Study 262 group 2, 50 mg/kg IP
[6] = Tox Study 262 group 3, 40 mg/kg IP
[7] = Tox Study 262 group 4, 30 mg/kg IP
[8] = Tox Study 262 group 5, 20 mg/kg IP
[9] = Tox Study #261 group 11, 50 mg/kg IP
[10] = Tox Study #261 group 12, dose TBD (solution error, eliminated from analysis) IP
[11] = Tox Study #261 group 13, dose TBD (solution error, eliminated from analysis) IP
[12] = Tox Study #261 group 14, dose TBD (solution error, eliminated from analysis) IP

For GIGKFLKKAKKFGKAFVKILKK [MSI-344], the “No. of Survivors Day 1” value [1, 5] was 0, the “No. of Survivors Day 2” value [1, 5] was 0 and the “No. of Survivors Day 3” value [1, 5] was 0. The “No. of Survivors Day 4” value [1, 5] was 0, the “No. of Survivors Day 5” value [1, 5] was 0 and the “No. of Survivors Day 6” value [1, 5] was 0. For the same sequence, the “No. of Survivors Day 7” value [1, 5] was 0, the “No. of Survivors Day 8” value [1, 5] was 0 and the “No. of Survivors Day 11” value [1, 5] was 0. The “No. of Survivors Day 1” value [1, 6] was 0, the “No. of Survivors Day 2” value [1, 6] was 0 and the “No. of Survivors Day 3” value [1, 6] was 0. The “No. of Survivors Day 4” value [1, 6] was 0, the “No. of Survivors Day 5” value [1, 6] was 0 and the “No. of Survivors Day 6” value [1, 6] was 0. For the same sequence, the “No. of Survivors Day 7” value [1, 6] was 0, the “No. of Survivors Day 8” value [1, 6] was 0 and the “No. of Survivors Day 11” value [1, 6] was 0. For the same sequence, the “No. of Survivors Day 1” value [1, 7] was 0, the “No. of Survivors Day 2” value [1, 7] was 0 and the “No. of Survivors Day 3” value [1, 7] was 0. For the same sequence, the “No. of Survivors Day 4” value [1, 7] was 0, the “No. of Survivors Day 5” value [1, 7] was 0 and the “No. of Survivors Day 6” value [1, 7] was 0. The “No. of Survivors Day 7” value [1, 7] was 0, the “No. of Survivors Day 8” value [1, 7] was 0 and the “No. of Survivors Day 11” value [1, 7] was 0. The “No. of Survivors Day 1” value [1, 8] was 3, the “No. of Survivors Day 2” value [1, 8] was 3 and the “No. of Survivors Day 3” value [1, 8] was 3. For the same sequence, the “No. of Survivors Day 4” value [1, 8] was 3, the “No. of Survivors Day 5” value [1, 8] was 3 and the “No. of Survivors Day 6” value [1, 8] was 3. The “No. of Survivors Day 7” value [1, 8] was 3, the “No. of Survivors Day 8” value [1, 8] was 3 and the “No. of Survivors Day 11” value [1, 8] was 3. For the same sequence, the “No. of Survivors Day 1” value [1, 9] was 0, the “No. of Survivors Day 2” value [1, 9] was 0 and the “No. of Survivors Day 3” value [1, 9] was 0. For the same sequence, the “No. of Survivors Day 4” value [1, 9] was 0, the “No. of Survivors Day 5” value [1, 9] was 0 and the “No. of Survivors Day 6” value [1, 9] was 0. For the same sequence, the “No. of Survivors Day 7” value [1, 9] was 0, the “No. of Survivors Day 8” value [1, 9] was 0 and the “No. of Survivors Day 1” value [1, 10] was 2. For the same sequence, the “No. of Survivors Day 2” value [1, 10] was 1, the “No. of Survivors Day 3” value [1, 10] was 1 and the “No. of Survivors Day 4” value [1, 10] was 1. For the same sequence, the “No. of Survivors Day 5” value [1, 10] was 1, the “No. of Survivors Day 6” value [1, 10] was 1 and the “No. of Survivors Day 7” value [1, 10] was 1. For the same sequence, the “No. of Survivors Day 8” value [1, 10] was 1, the “No. of Survivors Day 1” value [1, 11] was 0 and the “No. of Survivors Day 2” value [1, 11] was 0. The “No. of Survivors Day 3” value [1, 11] was 0, the “No. of Survivors Day 4” value [1, 11] was 0 and the “No. of Survivors Day 5” value [1, 11] was 0. The “No. of Survivors Day 6” value [1, 11] was 0, the “No. of Survivors Day 7” value [1, 11] was 0 and the “No. of Survivors Day 8” value [1, 11] was 0. The “No. of Survivors Day 1” value [1, 12] was 2, the “No. of Survivors Day 2” value [1, 12] was 1 and the “No. of Survivors Day 3” value [1, 12] was 1. The “No. of Survivors Day 4” value [1, 12] was 1, the “No. of Survivors Day 5” value [1, 12] was 1 and the “No. of Survivors Day 6” value [1, 12] was 1. The “No. of Survivors Day 7” value [1, 12] was 1, the “No. of Survivors Day 8” value [1, 12] was 1 and the LD50 ([1]; mouse, in vivo, ip, CD-1 mice, estimated from dose response curves) was 23.5 mg/kg. For the same sequence, the MTD ([1]; mouse, in vivo, ip, CD-1 mice, read-out: MTD of a single intraperitoneal (i.p.) administration) was under 20 mg/kg, the IC50 [2] was 10 µM and the IC50 [3] was 5 µM. It also gave an IC50 [4] of 20 µM.
